Assay results from patent US20220204497A1, “NOVEL COMPOUND HAVING ANTICANCER ACTIVITY, AND METHOD FOR PRODUCING SAME” (MEDICINAL BIOCONVERGENCE RESEARCH CENTER, priority 2019, published 2022).

Key:
[1] = target: T1, AIMP2-DX2 (Homo sapiens, UniProt Q13155); test: DX2-nanoluciferase assay (DX2 expression change) in transfected A549 cells; details: inhibitory effect on AIMP2-DX2 expression; for inhibition at 40 µM: A549, 4 h, read-out: DX-Nanoluciferase activity (40 μM), 40 μM, 4 hours treatment, A549 cells transfected with nanoluciferase-DX2; for DX-Nanoluciferase activity (40 μM): 4 hours treatment, A549 cells transfected with nanoluciferase-DX2
T1 sequence (Q13155 1-251 isoform Q13155-2): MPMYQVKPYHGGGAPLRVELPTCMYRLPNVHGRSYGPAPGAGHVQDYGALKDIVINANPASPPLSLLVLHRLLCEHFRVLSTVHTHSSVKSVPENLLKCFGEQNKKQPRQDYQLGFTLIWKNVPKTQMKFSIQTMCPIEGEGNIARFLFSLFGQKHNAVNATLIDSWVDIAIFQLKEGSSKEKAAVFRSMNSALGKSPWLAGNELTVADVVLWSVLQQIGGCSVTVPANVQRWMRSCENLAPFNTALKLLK
Experimental: After cloning DX2 into a plasmid expressing nanoluciferase, the plasmid was transfected into A549 cells. Transfected cells were seeded 1×10^4 per well in a 96-well plate and stabilized for 12 hours. […] Cell viability was measured by the MTT method after 72 hours of treatment with each concentration of the compound in A549 cells.

[2] = system: A549 cells; test: Cell viability by MTT method in A549 cells; format: cell-based; design: concentration or dose not given beside the values; details: 72 hours treatment

| inhibition at 40 µM [1] | Compound | Cell Viability (% inhibition) (A549) [2] | DX-Nanoluciferase activity (40 μM) [1] |
| --- | --- | --- | --- |
| -5.6 ± 5.2% | CC(C)C[C@H](NC(=O)c1ccc2c(c1)OCO2)C(=O)OCc1ccccc1 [Compound 52, (S)-benzyl 2-(benzo[d][1,3]dioxole-5-carboxamido)-4-methylpentanoate] | 64.59 ± 5.15% |  |
|  | CC(C)C[C@H](NC(=O)CCS(=O)(=O)c1ccccc1)C(=O)OCc1ccccc1 [Compound 54, (S)-benzyl 4-methyl-2-(3-(phenylsulfonyl)propanamido)pentanoate] | 84.05 ± 2.61% | 33.7 ± 4.3 |
| 33 ± 10.7% | CC(C)C[C@H](NC(=O)Nc1ccccc1)C(=O)N1CCOCC1 [Compound 56, (S)-1-(4-Methyl-1-morpholino-1-oxopentan-2-yl)-3-phenylurea] | 32.07% |  |
| 63.8 ± 11% | CC(C)C[C@H](NC(=O)c1ccc(C(C)(C)C)cc1)C(=O)N1CCOCC1 [Compound 57, (S)-4-tert-Butyl-N-(4-methyl-1-morpholino-1-oxopentan-2-yl)benzamide] | −4.86 ± 4.95% |  |
| 63.1 ± 4.5% | CC(C)C[C@H](NC(=O)CCS(=O)(=O)c1ccccc1)C(=O)N1CCOCC1 [Compound 58, (S)—N-(4-Methyl-1-morpholino-1-oxopentan-2-yl)-3-(phenylsulfonyl)propanamide] | −0.81 ± 4.95% |  |
| 45.7 ± 8.28% | CC(C)C[C@H](NC(=O)c1ccc(C(C)(C)C)cc1)C(=O)Nc1ccc(N2CCOCC2)cc1 [Compound 59, (S)-4-tert-Butyl-N-(4-methyl-1-(4-morpholinophenylamino)-1-oxopentan-2-yl)benzamide] | 90.03 ± 0.97% |  |
| 35.7 ± 10.2% | CC(C)C[C@H](NC(=O)c1ccc2c(c1)OCO2)C(=O)Nc1ccc(N2CCOCC2)cc1 [Compound 60, (S)—N-(4-Methyl-1-(4-morpholinophenylamino)-1-oxopentan-2-yl)benzo[d][1,3]dioxole-5-carboxamide] | 9.46 ± 9.67% |  |
| 60.3 ± 4.8% | CC(C)C[C@H](NC(=O)CCS(=O)(=O)c1ccccc1)C(=O)Nc1ccc(N2CCOCC2)cc1 [Compound 61, (S)-4-Methyl-N-(4-morpholinophenyl)-2-(3-(phenylsulfonyl)propanamido)pentanamide] | −1.25 ± 3.63% |  |
| 42.4 ± 3.97% | Cc1cc(C)cc(S(=O)(=O)N[C@@H](Cc2c[nH]c3ccccc23)C(=O)Nc2ccc(N3CCOCC3)cc2)c1 [Compound 66, (S)-2-(3,5-Dimethylphenylsulfonamido)-3-(1H-indol-3-yl)-N-(4 morpholinophenyl)propanamide] | 77.25 ± 0.82% |  |
| 44.5 ± 14.2% | O=C(Nc1ccc(N2CCOCC2)cc1)[C@H](Cc1c[nH]c2ccccc12)NS(=O)(=O)c1ccc(F)cc1 [Compound 67, (S)-2-(4-Fluorophenylsulfonamido)-3-(1H-indol-3-yl)-N-(4-morpholinophenyl)propanamide] | 69.20 ± 2.10% |  |
|  | O=C(Nc1ccc(N2CCOCC2)cc1)[C@H](Cc1c[nH]c2ccccc12)NS(=O)(=O)c1ccc(C(F)(F)F)cc1 [Compound 68, (S)-3-(1H-indol-3-yl)-N-(4-morpholinophenyl)-2-(4-(trifluoromethyl)phenylsulfon-amido)propanamide] | 76.90 ± 0.51% | 48.06 ± 6.78 |
| 48.4 ± 11.6% | Cc1ccc(S(=O)(=O)N[C@@H](Cc2c[nH]c3ccc(O)cc23)C(=O)Nc2ccc(N3CCOCC3)cc2)cc1 [Compound 69, (S)-3-(5-Hydroxy-1H-indol-3-yl)-2-(4-methylphenylsulfonamido)-N-(4-morpholinophenyl)propanamide] | 20.62 ± 5.14% |  |
| 59.7 ± 3.49% | Cc1ccc(S(=O)(=O)N[C@@H](Cc2c[nH]c3ccccc23)C(=O)N2CCOCC2)cc1 [Compound 70, (S)—N-(3-(1H-indol-3-yl)-1-morpholino-1-oxopropan-2-yl)-4-methylbenzenesulfonamide] | 23.61 ± 2.18% |  |
|  | Cc1ccc(S(=O)(=O)N[C@@H](Cc2c[nH]c3ccccc23)C(=O)Nc2ncc(N3CCOCC3)s2)cc1 [Compound 71, (S)-3-(1H-indol-3-yl)-2-(4-methylphenylsulfonamido)-N-(5-morpholinothiazol-2-yl)propan amide] | 72.71 ± 0.97% | 54.64 ± 13.30 |
| 21.5 ± 7.62% | Cc1ccc(S(=O)(=O)N[C@@H](Cc2c[nH]c3ccccc23)C(=O)Nc2ccc(N3CCOCC3)cc2)c(C)c1 [Compound 72, (S)-2-(2,4-Dimethylphenylsulfonamido)-3-(1H-indol-3-yl)-N-(4-morpholinophenyl)propanamide] | 73.73 ± 0.78% |  |
| 44.2 ± 3.91% | CCOC(=O)C(Cc1c[nH]c2ccc(C(=O)O)cc12)NS(=O)(=O)c1ccc(C)cc1 (centres unmarked) [Compound 73, 3-(3-Ethoxy-2-(4-methylphenylsulfonamido)-3-oxopropyl)-1H-indole-5-carboxylic acid] | 4.32 ± 2.95% |  |
| 56.2 ± 14.5% | Cc1ccc(S(=O)(=O)N[C@@H](Cc2cn(S(=O)(=O)c3ccc(C)cc3)cn2)C(=O)Nc2ccc(N3CCOCC3)cc2)cc1 [Compound 74, (S)-2-(4-Methylphenylsulfonamido)-N-(4-morpholinophenyl)-3-(1-tosyl-1H-Imidazol-4-yl)propanamide] | 45.34 ± 4.64% |  |
| 57.8 ± 8% | Cc1ccc(S(=O)(=O)N[C@@H](Cc2c[nH]c3ccccc23)C(=O)Nc2ccc(N3C[C@@H](C)O[C@@H](C)C3)nc2)cc1 [Compound 75, (S)—N-(6-((2S,6R)-2,6-dimethylmorpholino)pyridin-3-yl)-3-(1H-indol-3-yl)-2-(4-methylphenylsulfonamido)propanamide] | 79.58 ± 3.72% |  |
| 23.9 ± 7.01% | Cc1ccc(S(=O)(=O)N[C@@H](Cc2c[nH]c3ccccc23)C(=O)Nc2ccc(N3CCOCC3)c(F)c2)cc1 [Compound 77, (S)—N-(3-fluoro-4-morpholinophenyl)-3-(1H-indol-3-yl)-2-(4-methylphenylsulfonamido)propanamide] | 80.59 ± 1.49% |  |
| 44.5 ± 12.7% | O=C(Nc1ccc(N2CCOCC2)cc1)[C@H](Cc1c[nH]c2ccccc12)NS(=O)(=O)c1ccc([N+](=O)[O-])cc1 [Compound 78, (S)-3-(1H-indol-3-yl)-N-(4-morpholinophenyl)-2-(4-nitrophenylsulfonamido)propanamide] | 67.08 ± 1.45% |  |
| 30.6 ± 15.3% | O=C(Nc1ccc(N2CCOCC2)cc1)[C@H](Cc1c[nH]c2ccccc12)NS(=O)(=O)c1ccc(Br)cc1 [Compound 79, (S)-2-(4-Bromophenylsulfonamido)-3-(1H-indol-3-yl)-N-(4-morpholinophenyl)propanamide] | 78.31 ± 1.91% |  |

| Compound | inhibition at 40 µM [1] | Cell Viability (% inhibition) (A549) [2] | DX-Nanoluciferase activity (40 μM) [1] |
| --- | --- | --- | --- |
| CC(C)C[C@H](NC(=O)c1ccc(NC(=O)OC(C)(C)C)cc1)C(=O)OCc1ccccc1 [Compound 53, (S)-benzyl 2-(4-(tert-butoxycarbonylamino)benzamido)-4-methylpentanoate] | 43.7 ± 9.9% | 49.19 ± 13.33% |  |
